Values after ≈ are worked out from the molar mass of the structure shown.
Legend:
Assay type in all cases: functional
Penicillium [1] = experiment: Antimicrobial activity against Penicillium wild strain assessed as diameter of growth inhibition zone at 250 ug/ml after 48-96 hr by agar cup diffusion method; details: read-out: DIZ
Penicillium [2] = experiment: Antimicrobial activity against Penicillium wild strain assessed as diameter of growth inhibition zone at 100 ug/ml after 48-96 hr by agar cup diffusion method; details: read-out: DIZ
Trichophyton rubrum [3] = experiment: Antimicrobial activity against Trichophyton rubrum MTCC 296 assessed as diameter of growth inhibition zone at 100 ug/ml after 48-96 hr by agar cup diffusion method; details: read-out: DIZ
Aspergillus clavatus [4] = experiment: Antimicrobial activity against Aspergillus clavatus MTCC 1323 assessed as diameter of growth inhibition zone at 100 ug/ml after 48-96 hr by agar cup diffusion method; details: read-out: DIZ
Candida albicans [5] = experiment: Antimicrobial activity against Candida albicans MTCC 227 assessed as diameter of growth inhibition zone at 100 ug/ml after 48-96 hr by agar cup diffusion method; details: read-out: DIZ
Penicillium [6] = experiment: Antimicrobial activity against Penicillium wild strain assessed as diameter of growth inhibition zone at 50 ug/ml after 48-96 hr by agar cup diffusion method; details: read-out: DIZ
Trichophyton rubrum [7] = experiment: Antimicrobial activity against Trichophyton rubrum MTCC 296 assessed as diameter of growth inhibition zone at 50 ug/ml after 48-96 hr by agar cup diffusion method; details: read-out: DIZ
Aspergillus clavatus [8] = experiment: Antimicrobial activity against Aspergillus clavatus MTCC 1323 assessed as diameter of growth inhibition zone at 50 ug/ml after 48-96 hr by agar cup diffusion method; details: read-out: DIZ
Candida albicans [9] = experiment: Antimicrobial activity against Candida albicans MTCC 227 assessed as diameter of growth inhibition zone at 50 ug/ml after 48-96 hr by agar cup diffusion method; details: read-out: DIZ
Penicillium [10] = experiment: Antimicrobial activity against Penicillium wild strain assessed as diameter of growth inhibition zone at 25 ug/ml after 48-96 hr by agar cup diffusion method; details: read-out: DIZ
Trichophyton rubrum [11] = experiment: Antimicrobial activity against Trichophyton rubrum MTCC 296 assessed as diameter of growth inhibition zone at 25 ug/ml after 48-96 hr by agar cup diffusion method; details: read-out: DIZ
Aspergillus clavatus [12] = experiment: Antimicrobial activity against Aspergillus clavatus MTCC 1323 assessed as diameter of growth inhibition zone at 25 ug/ml after 48-96 hr by agar cup diffusion method; details: read-out: DIZ
Candida albicans [13] = experiment: Antimicrobial activity against Candida albicans MTCC 227 assessed as diameter of growth inhibition zone at 25 ug/ml after 48-96 hr by agar cup diffusion method; details: read-out: DIZ
Penicillium [14] = experiment: Antimicrobial activity against Penicillium wild strain by agar cup diffusion method
Aspergillus clavatus [15] = experiment: Antimicrobial activity against Aspergillus clavatus MTCC 1323 by agar cup diffusion method
Pseudomonas aeruginosa [16] = experiment: Antimicrobial activity against Pseudomonas aeruginosa MTCC 1688 assessed as diameter of growth inhibition zone at 25 ug/ml after 18-24 hr by agar cup diffusion method; details: read-out: DIZ
Escherichia coli [17] = experiment: Antimicrobial activity against Escherichia coli MTCC 443 assessed as diameter of growth inhibition zone at 25 ug/ml after 18-24 hr by agar cup diffusion method; details: read-out: DIZ
Staphylococcus aureus [18] = experiment: Antimicrobial activity against Staphylococcus aureus MTCC 96 assessed as diameter of growth inhibition zone at 25 ug/ml after 18-24 hr by agar cup diffusion method; details: read-out: DIZ
Streptococcus pyogenes [19] = experiment: Antimicrobial activity against Streptococcus pyogenes MTCC 442 assessed as diameter of growth inhibition zone at 25 ug/ml after 18-24 hr by agar cup diffusion method; details: read-out: DIZ
Klebsiella pneumoniae [20] = experiment: Antimicrobial activity against Klebsiella pneumoniae MTCC 109 by agar cup diffusion method
Escherichia coli [21] = experiment: Antimicrobial activity against Escherichia coli MTCC 443 by agar cup diffusion method
Pseudomonas aeruginosa [22] = experiment: Antimicrobial activity against Pseudomonas aeruginosa MTCC 1688 by agar cup diffusion method
Staphylococcus aureus [23] = experiment: Antimicrobial activity against Staphylococcus aureus MTCC 96 by agar cup diffusion method
Streptococcus pyogenes [24] = experiment: Antimicrobial activity against Streptococcus pyogenes MTCC 442 by agar cup diffusion method
Trichophyton rubrum [25] = experiment: Antimicrobial activity against Trichophyton rubrum MTCC 296 by agar cup diffusion method
Candida albicans [26] = experiment: Antimicrobial activity against Candida albicans MTCC 227 by agar cup diffusion method
Klebsiella pneumoniae [27] = experiment: Antimicrobial activity against Klebsiella pneumoniae MTCC 109 assessed as diameter of growth inhibition zone at 250 ug/ml after 18-24 hr by agar cup diffusion method; details: read-out: DIZ
Pseudomonas aeruginosa [28] = experiment: Antimicrobial activity against Pseudomonas aeruginosa MTCC 1688 assessed as diameter of growth inhibition zone at 250 ug/ml after 18-24 hr by agar cup diffusion method; details: read-out: DIZ
Escherichia coli [29] = experiment: Antimicrobial activity against Escherichia coli MTCC 443 assessed as diameter of growth inhibition zone at 250 ug/ml after 18-24 hr by agar cup diffusion method; details: read-out: DIZ
Staphylococcus aureus [30] = experiment: Antimicrobial activity against Staphylococcus aureus MTCC 96 assessed as diameter of growth inhibition zone at 250 ug/ml after 18-24 hr by agar cup diffusion method; details: read-out: DIZ
Streptococcus pyogenes [31] = experiment: Antimicrobial activity against Streptococcus pyogenes MTCC 442 assessed as diameter of growth inhibition zone at 250 ug/ml after 18-24 hr by agar cup diffusion method; details: read-out: DIZ
Klebsiella pneumoniae [32] = experiment: Antimicrobial activity against Klebsiella pneumoniae MTCC 109 assessed as diameter of growth inhibition zone at 100 ug/ml after 18-24 hr by agar cup diffusion method; details: read-out: DIZ
Pseudomonas aeruginosa [33] = experiment: Antimicrobial activity against Pseudomonas aeruginosa MTCC 1688 assessed as diameter of growth inhibition zone at 100 ug/ml after 18-24 hr by agar cup diffusion method; details: read-out: DIZ
Escherichia coli [34] = experiment: Antimicrobial activity against Escherichia coli MTCC 443 assessed as diameter of growth inhibition zone at 100 ug/ml after 18-24 hr by agar cup diffusion method; details: read-out: DIZ
Staphylococcus aureus [35] = experiment: Antimicrobial activity against Staphylococcus aureus MTCC 96 assessed as diameter of growth inhibition zone at 100 ug/ml after 18-24 hr by agar cup diffusion method; details: read-out: DIZ
Streptococcus pyogenes [36] = experiment: Antimicrobial activity against Streptococcus pyogenes MTCC 442 assessed as diameter of growth inhibition zone at 100 ug/ml after 18-24 hr by agar cup diffusion method; details: read-out: DIZ
Klebsiella pneumoniae [37] = experiment: Antimicrobial activity against Klebsiella pneumoniae MTCC 109 assessed as diameter of growth inhibition zone at 50 ug/ml after 18-24 hr by agar cup diffusion method; details: read-out: DIZ
Pseudomonas aeruginosa [38] = experiment: Antimicrobial activity against Pseudomonas aeruginosa MTCC 1688 assessed as diameter of growth inhibition zone at 50 ug/ml after 18-24 hr by agar cup diffusion method; details: read-out: DIZ
Escherichia coli [39] = experiment: Antimicrobial activity against Escherichia coli MTCC 443 assessed as diameter of growth inhibition zone at 50 ug/ml after 18-24 hr by agar cup diffusion method; details: read-out: DIZ
Staphylococcus aureus [40] = experiment: Antimicrobial activity against Staphylococcus aureus MTCC 96 assessed as diameter of growth inhibition zone at 50 ug/ml after 18-24 hr by agar cup diffusion method; details: read-out: DIZ
Streptococcus pyogenes [41] = experiment: Antimicrobial activity against Streptococcus pyogenes MTCC 442 assessed as diameter of growth inhibition zone at 50 ug/ml after 18-24 hr by agar cup diffusion method; details: read-out: DIZ
Klebsiella pneumoniae [42] = experiment: Antimicrobial activity against Klebsiella pneumoniae MTCC 109 assessed as diameter of growth inhibition zone at 25 ug/ml after 18-24 hr by agar cup diffusion method; details: read-out: DIZ
Trichophyton rubrum [43] = experiment: Antimicrobial activity against Trichophyton rubrum MTCC 296 assessed as diameter of growth inhibition zone at 250 ug/ml after 48-96 hr by agar cup diffusion method; details: read-out: DIZ
Aspergillus clavatus [44] = experiment: Antimicrobial activity against Aspergillus clavatus MTCC 1323 assessed as diameter of growth inhibition zone at 250 ug/ml after 48-96 hr by agar cup diffusion method; details: read-out: DIZ
Candida albicans [45] = experiment: Antimicrobial activity against Candida albicans MTCC 227 assessed as diameter of growth inhibition zone at 250 ug/ml after 48-96 hr by agar cup diffusion method; details: read-out: DIZ

COc1ccc(/C=C/C(=O)C2C(=O)NC(=S)NC2=O)cc1
zone of inhibition at 250 µg/mL (Penicillium [1]): 25 mm
zone of inhibition at 100 µg/mL (Penicillium [2]): 23 mm
zone of inhibition at 100 µg/mL (Trichophyton rubrum [3]): 21 mm
zone of inhibition at 100 µg/mL (Aspergillus clavatus [4]): 23 mm
zone of inhibition at 100 µg/mL (Candida albicans [5]): 24 mm
zone of inhibition at 50 µg/mL (Penicillium [6]): 21 mm
zone of inhibition at 50 µg/mL (Trichophyton rubrum [7]): 20 mm
zone of inhibition at 50 µg/mL (Aspergillus clavatus [8]): 21 mm
zone of inhibition at 50 µg/mL (Candida albicans [9]): 21 mm
zone of inhibition at 25 µg/mL (Penicillium [10]): 21 mm
zone of inhibition at 25 µg/mL (Trichophyton rubrum [11]): 19 mm
zone of inhibition at 25 µg/mL (Aspergillus clavatus [12]): 20 mm
zone of inhibition at 25 µg/mL (Candida albicans [13]): 18 mm
MFC (Penicillium [14]): 500 µg/mL (≈ 1640 µM)
MIC (Penicillium [14]): 500 µg/mL (≈ 1640 µM)
MFC (Aspergillus clavatus [15]): 1000 µg/mL (≈ 3290 µM)
MIC (Aspergillus clavatus [15]): 500 µg/mL (≈ 1640 µM)
zone of inhibition at 25 µg/mL (Pseudomonas aeruginosa [16]): 13 mm
zone of inhibition at 25 µg/mL (Escherichia coli [17]): 15 mm
zone of inhibition at 25 µg/mL (Staphylococcus aureus [18]): 13 mm
zone of inhibition at 25 µg/mL (Streptococcus pyogenes [19]): 15 mm
MBC (Klebsiella pneumoniae [20]): 250 µg/mL (≈ 821 µM)
MIC (Klebsiella pneumoniae [20]): 200 µg/mL (≈ 657 µM)
MBC (Escherichia coli [21]): 250 µg/mL (≈ 821 µM)
MIC (Escherichia coli [21]): 200 µg/mL (≈ 657 µM)
MBC (Pseudomonas aeruginosa [22]): 125 µg/mL (≈ 411 µM)
MIC (Pseudomonas aeruginosa [22]): 100 µg/mL (≈ 329 µM)
MBC (Staphylococcus aureus [23]): 250 µg/mL (≈ 821 µM)
MIC (Staphylococcus aureus [23]): 200 µg/mL (≈ 657 µM)
MBC (Streptococcus pyogenes [24]): 250 µg/mL (≈ 821 µM)
MIC (Streptococcus pyogenes [24]): 200 µg/mL (≈ 657 µM)
MFC (Trichophyton rubrum [25]): > 1000 µg/mL
MIC (Trichophyton rubrum [25]): > 1000 µg/mL
MFC (Candida albicans [26]): 1000 µg/mL (≈ 3290 µM)
MIC (Candida albicans [26]): > 1000 µg/mL
zone of inhibition at 250 µg/mL (Klebsiella pneumoniae [27]): 17 mm
zone of inhibition at 250 µg/mL (Pseudomonas aeruginosa [28]): 21 mm
zone of inhibition at 250 µg/mL (Escherichia coli [29]): 21 mm
zone of inhibition at 250 µg/mL (Staphylococcus aureus [30]): 21 mm
zone of inhibition at 250 µg/mL (Streptococcus pyogenes [31]): 21 mm
zone of inhibition at 100 µg/mL (Klebsiella pneumoniae [32]): 14 mm
zone of inhibition at 100 µg/mL (Pseudomonas aeruginosa [33]): 18 mm
zone of inhibition at 100 µg/mL (Escherichia coli [34]): 20 mm
zone of inhibition at 100 µg/mL (Staphylococcus aureus [35]): 18 mm
zone of inhibition at 100 µg/mL (Streptococcus pyogenes [36]): 20 mm
zone of inhibition at 50 µg/mL (Klebsiella pneumoniae [37]): 13 mm
zone of inhibition at 50 µg/mL (Pseudomonas aeruginosa [38]): 17 mm
zone of inhibition at 50 µg/mL (Escherichia coli [39]): 18 mm
zone of inhibition at 50 µg/mL (Staphylococcus aureus [40]): 17 mm
zone of inhibition at 50 µg/mL (Streptococcus pyogenes [41]): 18 mm
zone of inhibition at 25 µg/mL (Klebsiella pneumoniae [42]): 11 mm
zone of inhibition at 250 µg/mL (Trichophyton rubrum [43]): 22 mm
zone of inhibition at 250 µg/mL (Aspergillus clavatus [44]): 24 mm
zone of inhibition at 250 µg/mL (Candida albicans [45]): 24 mm
